A short description of the series: Human HepG2 cell viability assay in 384 well format. It counts as toxicity, cell-based. Also noted: dose 125 nL, time 70.5 hour; cytotoxicity at 70.5 h: concentration not given beside the values. The following applies: HepG2 cells, read-out: Inhibition.
On to `Cc1ccc(CN2CCc3c(C(=O)N(C)C)nn(C)c3C2)s1`, for which the cytotoxicity at 70.5 h is -5.06%. Regarding `COc1ccc(CN2CCCC(Cn3nc(C)nc3C)C2)cc1F` (centres undefined), the cytotoxicity at 70.5 h was -8.47%. With `CN(C)S(=O)(=O)c1csc(C(=O)N2CCC(C(N)=O)CC2)c1` the figure was -7.56%; with `Cc1ccc(CCNc2nc(-c3ccncc3)nc3c2CCNCC3)o1`, 2.56%; with `CCN1CCn2c(C)cnc2C12CCN(C(=O)NCC(C)C)CC2`, -11.3%. Next, `Cc1cnn(CC2CCCN2CC(=O)Nc2nncs2)c1` (centres undefined): -5.64%. Next, `O=C(COc1ccc(Cl)cc1)NCc1nncn1C1CC1`: -14.1%. With `Cc1ccc2c(n1)N(CC1CC1)CCN(C(=O)NC1CC1)C2`, the cytotoxicity at 70.5 h is -7.71%.

`O=C(Nc1ccc(N2CCCCC2)nc1)N1CCc2sccc2C1`: the cytotoxicity at 70.5 h was 16.2%.

For the compound `CCc1ccccc1NC(=O)NCc1nnc(SC)n1C`, the cytotoxicity at 70.5 h is -5.85%. With `CNS(=O)(=O)c1ccccc1N1CCN(C(=O)NC(C)C)CC1`, the cytotoxicity at 70.5 h was -5.21%.

For the compound `Cc1ccnc(CNC(=O)C2CC(=O)N(CCN(C)C)C2)c1` (centres undefined), the cytotoxicity at 70.5 h was -7.06%. Next, `CC(C)c1cc(C2CCN(C(=O)Cn3cnnn3)CC2)[nH]n1`: -6.46%; `O=C(Cc1cccc(F)c1F)NS(=O)(=O)c1ccc(Cl)cc1F`: 12.1%. With `COC(=O)C(CNC(=O)Nc1nncs1)Cc1ccc(O)cc1` (centres undefined) the figure was -2.82%; with `CC(=O)N1CCN(Cc2ccc(F)cc2)CC2(CC(=O)N(C)C2)C1` (centres undefined), 23.3%. With `O=C(COCc1ccccc1)N1CCN(c2ccc(Cl)cn2)CC1` the figure was -4.29%. Consider `Cc1ccc(CN2CCCn3c(nc(Cn4ccnc4)cc3=O)C2)o1`, for which the cytotoxicity at 70.5 h was -6.14%. In the case of `O=C(Nc1ccc(-c2cscn2)cc1)C1CCCN(Cc2ccon2)C1` (centres undefined), the cytotoxicity at 70.5 h was -1.4%.

For `CC(NCc1cnc(N2CCOCC2)nc1)c1ccc(Cl)s1` (centres undefined), the cytotoxicity at 70.5 h is -9.24%. As for `CCCN(CCC)c1ncc(S(=O)(=O)c2ccc(OC)cc2)c(N)n1`, the cytotoxicity at 70.5 h is -9.23%. Take `Cc1nc(C(=O)N2CCCCC2)nn1-c1ccccc1Cl`: the cytotoxicity at 70.5 h is -7.71%. As to `CC(Cn1cccn1)NC(=O)N1CCN(Cc2cccs2)CC1` (centres undefined), the cytotoxicity at 70.5 h is 17%. Next, `COCCCNC(=O)CN(C)C1CCCN(c2cccnn2)C1` (centres undefined): -6.82%; `O=C(NCC1CCCCC1)N1C[C@H]2C[C@H](C(=O)N3CCCC3)[C@@H](C1)O2`: -1.84%; `CC(NC(=O)NCCCn1cncn1)c1ccccc1F` (centres undefined): -4.63%. Next, `c1cncc(CCc2nc(C3CC3)nn2-c2ccc3c(c2)OCCO3)c1`: 21.8%. Next, `COc1c(C2CCCN2Cc2cn3ccsc3n2)c(C)nn1C` (centres undefined): -6.12%. As to `N#Cc1ccc(NC2CCN(c3ncccn3)CC2)cc1Cl`, the cytotoxicity at 70.5 h came out at 7.18%. With `CN(C)C(=O)c1cccc(Nc2cnn(C)c2)c1` the figure was -3.59%; with `CC(C)c1nnc(CN2CCCC(c3cc(C(N)=O)[nH]n3)C2)o1` (centres undefined), 26.9%.

For `CC(CCc1ccccc1)NC(=O)CN1CCOCC1` (centres undefined), the cytotoxicity at 70.5 h is -3.3%.

On to `CCC(NCc1ccccn1)c1ccccc1OCC(=O)NC` (centres undefined), for which the cytotoxicity at 70.5 h is -3.93%. With `O=C1CC(N(C(=O)c2ccccc2Br)C2CC2)C(=O)N1` (centres undefined) the figure was 2.23%; with `CC(C)CCN1CCc2c(C(=O)N(C)Cc3ccccn3)nn(C)c2C1`, -2.57%. Regarding `CC(C)n1cnc2c1C(C(=O)NCCO)N(Cc1ccccc1)CC2` (centres undefined), the cytotoxicity at 70.5 h was -8.21%. Next, `Cc1nn(C)c(C)c1C1CCCN1C(=O)CCCc1ccccn1` (centres undefined): -4.63%; `Cc1nc(C(C)Nc2nc3c(s2)c(C)nn3C)n[nH]1` (centres undefined): 15.8%. Next, `COc1ccc(C)cc1S(=O)(=O)NCC(c1cccn1C)N(C)C` (centres undefined): -3.74%; `CCn1nc(C)c2ccn(CC(=O)NCC3CCCO3)c(=O)c21` (centres undefined): -5.94%; `Cc1noc([C@H]2COC[C@H]3CN(C(=O)Cc4ccc(F)cc4)C[C@H]32)n1`: -2.96%. With `c1ncn(CC2CCCN(Cc3noc(C4CC4)n3)C2)n1` (centres undefined) the figure was -12.6%; with `CSCCC(=O)N1CCC(c2nnc(CN(C)CCO)n2C)CC1`, -2.23%.

Take `CCCn1nnc2c(sc3nc(N4CCOCC4)c4c(c32)CCC4)c1=O`: the cytotoxicity at 70.5 h is -21.7%. Next, `O=C(c1ccc(F)cc1)N1CCOC(c2nc(-c3ncccn3)no2)C1` (centres undefined): -5.53%; `CCOc1ccccc1C(=O)NS(=O)(=O)c1ccc2c(c1)OCCCO2`: -4.55%; `C[C@@H]1CN(c2nc3c(cc2C(N)=O)CCC3)CC[C@@]1(O)C1CCC1`: -12.9%. In the case of `O=C(COc1coc(CN2CCCCC2)cc1=O)Nc1cccc(Cl)c1`, the cytotoxicity at 70.5 h was -7.03%. With `CC(=O)c1cc(CN2C[C@H]3CC[C@@H]2CN(S(C)(=O)=O)C3)cs1` the figure was 13.8%; with `CN1C(=O)CC(C(=O)O)C12CCN(c1ccc3ccccc3n1)CC2` (centres undefined), -4.07%; with `CC(C)N(C)C(=O)C1CCC2(CCNCC2)O1` (centres undefined), 5.71%.

With `O=C(C(CNCc1ccncc1)c1ccccc1)N1CCOCC1` (centres undefined), the cytotoxicity at 70.5 h is -5.58%. Next, `Cc1ncsc1C(=O)N1CCCC(c2nccn2Cc2cscn2)C1` (centres undefined): -5.99%.

With `CC(C)n1cc(-c2c(C#N)c(N)nc3c2COCC3)cn1`, the cytotoxicity at 70.5 h amounted to 10.2%. In the case of `Cc1ccc(-c2nnc(SCC(=O)O)n2-c2ccc(C)cc2)cc1`, the cytotoxicity at 70.5 h is -15.4%. Next, `CCNc1ncc(C(=O)NC(CCN(C)C)c2ccccc2)cn1` (centres undefined): 26.8%; `Cc1nccn1-c1ccc(C(C)Nc2cnn(C)c(=O)c2Cl)cc1` (centres undefined): 9.7%; `CN(CC(=O)N1CCCC1c1noc(C2CC2)n1)C1CC1` (centres undefined): -8.76%. Next, `N#Cc1ccc2c(c1)CN(C(=O)c1nc[nH]n1)C2c1cnco1` (centres undefined): -2.48%.

Take `OCCOc1nc(-c2ccccc2Cl)no1`: the cytotoxicity at 70.5 h is -1.34%.

`COc1nsc2nc(C3CCCN3C(C)=O)ccc12` (centres undefined): the cytotoxicity at 70.5 h is -3.15%. For the compound `CN1CCN(C(=O)c2cnn(-c3ccccc3Cl)c2)CC1`, the cytotoxicity at 70.5 h is -8.29%. As for `Cc1nccc(N2CCCC(c3nnc(Cn4ccnc4C)n3C)C2)n1` (centres undefined), the cytotoxicity at 70.5 h amounted to 16.3%.

With `Cc1cc(=O)n2ncnc2n1CC(O)c1ccccc1Cl` (centres undefined), the cytotoxicity at 70.5 h was -3.15%.

Regarding `C=C(C)COc1ccccc1NC(=O)N1CCCCC1CO` (centres undefined), the cytotoxicity at 70.5 h was 4.81%.

With `COC(=O)c1cccn1C1CCN(C(=O)c2cc(F)ccc2C)CC1`, the cytotoxicity at 70.5 h was -16.9%.

Consider `O=C(CN1CCCC(Cn2cncn2)C1)NCc1ccco1` (centres undefined), for which the cytotoxicity at 70.5 h was -15.8%. With `CS(=O)(=O)NCc1nnc2n1CCN(Cc1ccncc1)C2` the figure was 20.1%; with `CC(C)N(C)CCNC(=O)N(C)CC1CCOCC1`, -11.2%; with `CS(=O)(=O)NCCC(=O)NCc1cccnc1-n1cnc2ccccc21`, -12.6%. With `Cc1cnn(CCNCc2csc(COc3ccccc3)n2)c1`, the cytotoxicity at 70.5 h is -0.421%.

As for `CN1CCN(C[C@@H]2CN(Cc3c(Cl)cncc3Cl)C[C@@H]2CO)CC1`, the cytotoxicity at 70.5 h was -11.7%. Turning to `O=C(CC1NC(N2CCc3ccccc3C2)=NC1=O)Nc1ccccc1` (centres undefined), the cytotoxicity at 70.5 h was -5.52%.

`COC[C@]1(O)CCN(C2CCN(c3ccc(OC)cc3)CC2)CC1(C)C`: the cytotoxicity at 70.5 h was found to be 23.9%. Next, `COCC(=O)NCCc1ccc(I)s1`: -8.78%. Next, `COc1cc(N2CC[C@H]3O[C@@H](C(=O)NC4CCCC4)CC[C@H]32)ncn1`: -9.02%; `NC(=O)CN(C(=O)Cc1cccc(C(F)(F)F)c1)C1CCCC1`: -2.84%. With `CCN1CCCc2cc(CN3CCc4nc(C)[nH]c(=O)c4C3)ccc21` the figure was -0.248%. `Cc1ncsc1-c1nc(CC2CCN(C)CC2)nn1Cc1ccccc1`: the cytotoxicity at 70.5 h stood at 8.01%. With `CCn1ccnc1CN1CCCN(C(=O)c2cccn2C)CC1` the figure was 23.9%; with `CCN1C(=O)C2(CCOCC2)c2cc(NC(=O)c3cccn3C)ccc21`, -0.784%; with `Cc1noc([C@@H]2CCO[C@@H]3CCN(Cc4cccs4)C[C@@H]32)n1`, 9.6%.

Consider `Cc1cnn(CCCNC(=O)CCC2CCCCN2C)c1` (centres undefined), for which the cytotoxicity at 70.5 h is -13.1%.

As for `Cc1cc2n(n1)CC(CNCc1ccccc1-n1cccn1)CN2` (centres undefined), the cytotoxicity at 70.5 h is -4.8%. With `OC1CCN(Cc2ccnc(-c3cccnc3)n2)CC1` the figure was -7.13%; with `CCc1nc(CN2CCCN(c3ncnc4sccc34)CC2)no1`, 16.3%. With `COCc1cccc(CNc2cnn(C(C)(C)C)c(=O)c2Cl)c1` the figure was 41%. With `Cc1ccoc1C(=O)NC1CCN(Cc2ccccc2C#N)CC1` the figure was -1.98%.

Regarding `CCN(CC)C(=O)c1cc(C2(C)CCN(C(C)=O)CC2)nc(C)n1`, the cytotoxicity at 70.5 h came to 4.01%.

`Cn1ncc(C2CC(=O)NCc3nc4ccccn4c32)c1C1CC1` (centres undefined): the cytotoxicity at 70.5 h is -11.4%. Next, `CC(CCSc1ccccc1)N1CCN(C(=O)c2ccccc2O)CC1` (centres undefined): 36.1%; `Cc1ccc(C(=O)N2C[C@@H]3OCCN(CCN4CCCC4)[C@@H]3C2)cn1`: -4.09%.

Turning to `CNC(=O)Cc1ccc(NC(=O)NCc2nc(C)sc2C)cc1`, the cytotoxicity at 70.5 h is 13.2%. Next, `Cn1ncc2c1C(COCC1CC1)CN(C(=O)c1ccoc1)C2` (centres undefined): 14.1%; `COc1ccc(CN(C)C(=O)CCc2c(C)nc(C)[nH]c2=O)cc1OC`: -7.96%.

As for `Nc1nc(CN2CCCC2Cn2cncn2)nc2ccccc12` (centres undefined), the cytotoxicity at 70.5 h is -2.37%. Turning to `Cc1cc(C(F)(F)F)nc(C2CCCN2S(C)(=O)=O)n1` (centres undefined), the cytotoxicity at 70.5 h is 1.14%. With `O=C(Nc1ccc2c(c1)OCO2)N1CCN(CCn2ccnc2)CC1` the figure was -6.54%. Next, `O=C(Nc1ccccc1)c1ccc(NCc2ccccc2CO)nn1`: -6.13%.

(Values after ChEMBL document CHEMBL3507680, “University of Dundee, Gates Library screen for HepG2 cell viability”.)
